Experimental data published in article PMC3237002, “Molecular Conversion of Muscarinic Acetylcholine Receptor M5 to Muscarinic Toxin 7 (MT7)-Binding Protein” (Toxins, 2011).
Where a chain is given by its changes, count along the chain named.

Columns and labels:
[1] = molecular target: T1, M5-ELY receptor construct (Homo sapiens, UniProt P08912, K175E/P179L/Q184Y); assay: [3H]NMS dissociation rate, M5-ELY; format: binding
T1 construct: expressed in transfected cells; host or cells: Sf9 cells, recombinant baculovirus
T1 sequence (P08912 1-532 K175E/P179L/Q184Y): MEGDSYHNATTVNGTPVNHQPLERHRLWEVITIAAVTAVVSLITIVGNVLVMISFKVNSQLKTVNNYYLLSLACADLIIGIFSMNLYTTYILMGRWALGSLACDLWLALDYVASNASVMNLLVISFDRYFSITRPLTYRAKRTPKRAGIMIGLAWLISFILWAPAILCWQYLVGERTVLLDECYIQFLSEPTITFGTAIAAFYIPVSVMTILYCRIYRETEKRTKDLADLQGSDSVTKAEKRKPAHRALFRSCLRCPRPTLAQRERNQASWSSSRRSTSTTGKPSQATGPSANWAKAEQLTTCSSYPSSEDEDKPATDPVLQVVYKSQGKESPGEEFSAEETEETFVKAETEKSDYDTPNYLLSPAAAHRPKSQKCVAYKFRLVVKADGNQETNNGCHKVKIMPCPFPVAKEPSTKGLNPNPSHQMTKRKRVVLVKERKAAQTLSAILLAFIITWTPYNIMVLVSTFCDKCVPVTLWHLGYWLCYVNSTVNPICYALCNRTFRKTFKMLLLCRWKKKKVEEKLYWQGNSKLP
Protocol: (§1) The Infected cells from monolayer culture were harvested in phosphate-buffered saline solution, centrifuged 700× g and stored as pellets at −70 °C until use. For binding experiments the cells were resuspended in binding buffer (100 mM NaCl, 20 mM HEPES, 10 mM MgCl2, 1 mM EDTA, pH adjusted to 7.4) and homogenized with an Ultra-Turrax homogenizer. […] Atropine (10 μM) was used to determine nonspecific binding. […] Following this, dissociation was started by addition of 10 μM atropine with or without MT7. Aliquots were removed at regular intervals from 0 to 100 min. In testing the reversibility of MT7 binding, cell homogenates were first incubated with toxin in test tubes for 45 min, thereafter centrifuged 12,000 × g for 30 min and then resuspended in fresh buffer. […] All reactions were terminated by rapid filtration through prewashed GF/B filters followed by five washes with cold buffer containing 180 mM NaCl, 25 mM MgCl2, and 20 mM HEPES, pH 7.4, in a microplate harvester. Radioactivity on filters was determined in a TopCount microplate scintillation counter (PerkinElmer, Waltham, MA).

[2] = molecular target: T2, M5-ELYE receptor construct (Homo sapiens, UniProt P08912, K175E/P179L/Q184Y/V474E); assay: [3H]NMS dissociation rate, M5-ELYE; format: binding
T2 construct: expressed in transfected cells; host or cells: Sf9 cells, recombinant baculovirus
T2 sequence (P08912 1-532 K175E/P179L/Q184Y/V474E): T1 sequence (P08912 1-532 K175E/P179L/Q184Y) with V474E
Protocol: as §1

**Q.** C[N+]1(C)[C@@H]2CC(OC(=O)[C@H](CO)c3ccccc3)C[C@H]1[C@@H]1O[C@@H]12 (some centres unmarked) [[^3H]NMS, [^3H]-N-methylscopolamine] was tested. Which “[3H]NMS dissociation rate, control” value [1] did it give?
**A.** 0.113 min⁻¹

**Q.** And the “[3H]NMS dissociation rate, control” value [2]?
**A.** 0.147 min⁻¹
